Some test systems named below: NCI-H23 lung; LOX IMVI melanoma; HCC-2998 colon; SK-MEL-2 melanoma; DU-145 prostate; NCI-H460 lung; HCT-15 colon; SN12C renal; OVCAR-4 ovarian; SNB-19 CNS; MDA-MB-435; OVCAR-5 ovarian; HL-60(TB) leukemia.
Holding throughout (assay): NCI anticancer screen, dose series, 48 h

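The compound was tested at five concentrations on cells cultured in 96-well plates, with a 48-hour exposure period. TGI: total growth inhibition.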

For `O=C1Nc2ccccc2SC1=C(C(=O)c1ccccc1)C(=O)c1ccccc1`, the TGI is over 90.8 µM in the experiment with NCI-H23 lung; over 100 µM in the experiment with LOX IMVI melanoma; 63.8 µM in the experiment on HCC-2998 colon; 67.1 µM in the experiment with SK-MEL-2 melanoma; over 100 µM in the experiment with DU-145 prostate; over 86.8 µM in the experiment with NCI-H460 lung. For the same compound, the TGI with HCT-15 colon was over 100 µM; in the experiment with SN12C renal, over 89.8 µM; in the experiment on OVCAR-4 ovarian, over 100 µM; in the experiment on SNB-19 CNS, over 100 µM; in the experiment with MDA-MB-435 it was 55.6 µM; in the experiment with OVCAR-5 ovarian it was over 91.1 µM. The TGI in the experiment on HL-60(TB) leukemia is 0.82 µM.

Consider `Nc1ccc(C(=O)O)cc1`, for which the TGI with NCI-H23 lung, in the experiment with LOX IMVI melanoma, in the experiment on HCC-2998 colon, in the experiment with SK-MEL-2 melanoma, with DU-145 prostate and in the experiment with NCI-H460 lung was over 100 µM in each case. Further, the TGI in the experiment on HCT-15 colon is 52 µM; in the experiment on SN12C renal it was over 100 µM; in the experiment with OVCAR-4 ovarian, over 100 µM; in the experiment with SNB-19 CNS it was over 100 µM; with MDA-MB-435, over 100 µM; with OVCAR-5 ovarian it was over 100 µM. Further, the TGI in the experiment with HL-60(TB) leukemia was over 100 µM.

For `CC(C)=C=CP(=O)(O)c1ccccc1`, the TGI with NCI-H23 lung, in the experiment with LOX IMVI melanoma, in the experiment with HCC-2998 colon, in the experiment on SK-MEL-2 melanoma, with DU-145 prostate and in the experiment with NCI-H460 lung was over 100 µM each time. Moreover, the TGI with HCT-15 colon, with SN12C renal, in the experiment on OVCAR-4 ovarian, with SNB-19 CNS, in the experiment on MDA-MB-435 and in the experiment on OVCAR-5 ovarian was over 100 µM each time. The same compound yielded a TGI in the experiment with HL-60(TB) leukemia of over 100 µM.

For the compound `Cc1nccn1S(=O)(=O)c1ccc(Cl)cc1`, the TGI in the experiment with NCI-H23 lung is over 100 µM; in the experiment on LOX IMVI melanoma, over 100 µM; in the experiment with HCC-2998 colon, 88 µM; with SK-MEL-2 melanoma, over 100 µM; in the experiment on DU-145 prostate it was over 100 µM; with NCI-H460 lung, over 100 µM. In addition, the TGI with HCT-15 colon was over 100 µM; in the experiment on SN12C renal it was over 100 µM; with OVCAR-4 ovarian, over 100 µM; with SNB-19 CNS it was over 100 µM; in the experiment on MDA-MB-435, 48.8 µM; in the experiment on OVCAR-5 ovarian, over 100 µM. Further, in the experiment with HL-60(TB) leukemia, the TGI amounted to 60.5 µM.

Consider `CCOC(=O)C1=C(C)N(Cc2ccccc2)C2(O)C(OC)CC(=O)C3C(=O)N(c4ccccc4)C(=O)C132` (stereo not given), for which the TGI in the experiment with NCI-H23 lung is over 100 µM; in the experiment on LOX IMVI melanoma, over 100 µM; in the experiment with HCC-2998 colon, 53.5 µM; in the experiment with SK-MEL-2 melanoma, 59.1 µM; in the experiment with DU-145 prostate, 15.1 µM; in the experiment on NCI-H460 lung, over 100 µM. Also, the TGI in the experiment with HCT-15 colon is over 100 µM; in the experiment with SN12C renal, 41.5 µM; in the experiment on OVCAR-4 ovarian, 18.4 µM; with SNB-19 CNS it was 37.6 µM; in the experiment with MDA-MB-435, over 100 µM; in the experiment on OVCAR-5 ovarian, over 100 µM. Further, the TGI in the experiment on HL-60(TB) leukemia was over 100 µM.

For the compound `COc1ccc(/C=C(/c2ccc(OC)cc2)c2c(Cl)cc(Cl)c(/C(=C\c3ccc(OC)cc3)c3ccc(OC)cc3)c2N=Nc2ccccc2)cc1`, the TGI with NCI-H23 lung, with LOX IMVI melanoma, with HCC-2998 colon, in the experiment on SK-MEL-2 melanoma, with DU-145 prostate and in the experiment with NCI-H460 lung was over 100 µM throughout. Moreover, the TGI in the experiment on HCT-15 colon, in the experiment on SN12C renal, with OVCAR-4 ovarian, in the experiment on SNB-19 CNS, in the experiment with MDA-MB-435 and in the experiment with OVCAR-5 ovarian was over 100 µM each time. The TGI in the experiment with HL-60(TB) leukemia was over 100 µM.

Consider `O=C(CN1CCN(c2ccccn2)CC1)N1CCCn2c1nc1ccccc1c2=O`, for which the TGI in the experiment with NCI-H23 lung, in the experiment on LOX IMVI melanoma, in the experiment on HCC-2998 colon, in the experiment with SK-MEL-2 melanoma, in the experiment on DU-145 prostate and in the experiment with NCI-H460 lung was over 100 µM throughout. Besides, the TGI with HCT-15 colon, with SN12C renal, with OVCAR-4 ovarian, in the experiment with SNB-19 CNS, in the experiment on MDA-MB-435 and with OVCAR-5 ovarian was over 100 µM throughout. For the same compound, the TGI in the experiment on HL-60(TB) leukemia was over 100 µM.

For `CCOC(=O)Cc1cc(=O)[nH]c(-n2[nH]c(C)c(CCO)c2=O)n1`, the TGI with NCI-H23 lung, with LOX IMVI melanoma, in the experiment on HCC-2998 colon, in the experiment with SK-MEL-2 melanoma, in the experiment on DU-145 prostate and with NCI-H460 lung was over 100 µM each time. The TGI in the experiment on HCT-15 colon, in the experiment on SN12C renal, with OVCAR-4 ovarian, with SNB-19 CNS, in the experiment on MDA-MB-435 and in the experiment with OVCAR-5 ovarian was over 100 µM each time. In addition, the TGI in the experiment with HL-60(TB) leukemia was over 100 µM.

Regarding `Cn1c(-c2c(C3=CC(=O)N(c4ccccc4)C3=O)c3ccccc3n2C)cc2ccccc21`, the TGI in the experiment on NCI-H23 lung, with LOX IMVI melanoma, in the experiment on HCC-2998 colon, with SK-MEL-2 melanoma, with DU-145 prostate and with NCI-H460 lung was over 100 µM in each case. Besides, the TGI with HCT-15 colon, with SN12C renal, in the experiment with OVCAR-4 ovarian, in the experiment with SNB-19 CNS, with MDA-MB-435 and with OVCAR-5 ovarian was over 100 µM in each case. Also, the TGI in the experiment with HL-60(TB) leukemia is over 100 µM.

Regarding `COc1cccc(N(CN2C(=O)CCC2OC)C(C)=O)c1` (stereo not given), the TGI with NCI-H23 lung, in the experiment on LOX IMVI melanoma, in the experiment on HCC-2998 colon, in the experiment with SK-MEL-2 melanoma, in the experiment with DU-145 prostate and with NCI-H460 lung was over 100 µM in each case. For the same compound, the TGI in the experiment on HCT-15 colon, with SN12C renal, in the experiment on OVCAR-4 ovarian, with SNB-19 CNS, with MDA-MB-435 and in the experiment with OVCAR-5 ovarian was over 100 µM each time. For the same compound, the TGI in the experiment on HL-60(TB) leukemia came out at 49.2 µM.

Values taken from PubChem BioAssay (NCI).
